T1: mCRT(1-351 ΔP) (Mus musculus, UniProt P14211, DEL204-300)
T1 sequence (P14211 with tags, fused parts or gaps DEL204-300): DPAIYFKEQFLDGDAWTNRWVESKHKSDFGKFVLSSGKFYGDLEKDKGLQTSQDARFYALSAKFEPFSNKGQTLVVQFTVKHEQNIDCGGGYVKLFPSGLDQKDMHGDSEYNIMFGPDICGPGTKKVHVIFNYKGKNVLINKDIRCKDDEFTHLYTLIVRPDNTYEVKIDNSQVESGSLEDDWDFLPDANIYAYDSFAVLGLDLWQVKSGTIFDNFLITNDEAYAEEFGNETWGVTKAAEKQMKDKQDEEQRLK

T2: mCRT(ΔP) (Mus musculus, UniProt P14211, DEL204-300)
T2 sequence (P14211 with tags, fused parts or gaps DEL204-300): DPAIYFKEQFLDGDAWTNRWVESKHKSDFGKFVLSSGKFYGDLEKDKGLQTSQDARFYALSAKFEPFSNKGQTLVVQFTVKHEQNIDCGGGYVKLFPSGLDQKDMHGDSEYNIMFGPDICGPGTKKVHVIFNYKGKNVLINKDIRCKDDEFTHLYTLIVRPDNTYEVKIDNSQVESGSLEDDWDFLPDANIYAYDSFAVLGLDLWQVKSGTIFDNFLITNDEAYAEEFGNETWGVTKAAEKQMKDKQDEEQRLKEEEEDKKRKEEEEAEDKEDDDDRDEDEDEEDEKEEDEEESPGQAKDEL

T3: mCRT(WT) (Mus musculus, UniProt P14211)
T3 sequence (P14211 18-416): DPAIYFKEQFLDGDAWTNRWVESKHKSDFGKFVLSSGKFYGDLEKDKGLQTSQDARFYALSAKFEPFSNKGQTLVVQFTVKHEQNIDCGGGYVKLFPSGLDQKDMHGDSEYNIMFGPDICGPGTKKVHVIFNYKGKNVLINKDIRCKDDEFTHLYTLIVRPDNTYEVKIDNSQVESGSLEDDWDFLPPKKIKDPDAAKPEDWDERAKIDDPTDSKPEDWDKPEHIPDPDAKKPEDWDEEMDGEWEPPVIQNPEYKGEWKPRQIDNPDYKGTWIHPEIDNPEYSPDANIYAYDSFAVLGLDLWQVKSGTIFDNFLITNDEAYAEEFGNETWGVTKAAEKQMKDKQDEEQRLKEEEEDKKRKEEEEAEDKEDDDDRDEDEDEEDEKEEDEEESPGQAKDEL

T4: mCRT(1-351) (Mus musculus, UniProt P14211)
T4 sequence (P14211 18-368): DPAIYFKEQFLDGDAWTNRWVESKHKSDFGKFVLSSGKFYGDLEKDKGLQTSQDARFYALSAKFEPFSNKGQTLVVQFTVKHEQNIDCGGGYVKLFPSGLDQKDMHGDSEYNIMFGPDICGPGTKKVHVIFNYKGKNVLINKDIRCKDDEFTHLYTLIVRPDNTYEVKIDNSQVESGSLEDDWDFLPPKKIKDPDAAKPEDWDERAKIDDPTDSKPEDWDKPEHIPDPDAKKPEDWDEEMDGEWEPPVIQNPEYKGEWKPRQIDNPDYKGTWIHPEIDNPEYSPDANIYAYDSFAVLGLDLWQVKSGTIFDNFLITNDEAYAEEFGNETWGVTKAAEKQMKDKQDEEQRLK

T5: GB1-mCRT(C) (Mus musculus, UniProt P14211)
T5 sequence (P14211 357-416): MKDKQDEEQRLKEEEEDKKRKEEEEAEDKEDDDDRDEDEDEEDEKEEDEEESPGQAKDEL

T6: ERp57 (UniProt P30101 25-505)
T6 sequence (looked up): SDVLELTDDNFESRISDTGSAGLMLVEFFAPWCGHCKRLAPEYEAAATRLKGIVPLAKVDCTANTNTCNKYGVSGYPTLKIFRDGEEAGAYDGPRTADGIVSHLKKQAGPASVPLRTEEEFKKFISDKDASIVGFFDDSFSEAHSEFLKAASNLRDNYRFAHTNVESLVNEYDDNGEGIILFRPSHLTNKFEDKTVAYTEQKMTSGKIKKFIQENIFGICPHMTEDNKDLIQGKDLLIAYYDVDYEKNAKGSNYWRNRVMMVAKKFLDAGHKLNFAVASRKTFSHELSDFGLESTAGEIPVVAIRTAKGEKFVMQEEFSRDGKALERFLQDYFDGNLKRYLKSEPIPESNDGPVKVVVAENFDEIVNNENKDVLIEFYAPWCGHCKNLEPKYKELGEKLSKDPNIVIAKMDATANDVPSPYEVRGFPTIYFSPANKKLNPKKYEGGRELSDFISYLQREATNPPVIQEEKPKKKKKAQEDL


Legend:
mCRT(1-351 ΔP) = target: T1, mCRT(1-351 ΔP); test: isothermal titration calorimetry, lipid vesicles titrated into […] protein; type: binding
mCRT(ΔP) = target: T2, mCRT(ΔP); test: as above; type: binding
mCRT(WT) = target: T3, mCRT(WT); test: as above; type: binding
mCRT(1-351) = target: T4, mCRT(1-351); test: as above; type: binding
GB1-mCRT(C) = target: T5, GB1-mCRT(C); test: as above; type: binding
[1] = target: GB1-mCRT(P), the P-domain of murine calreticulin (residues 187-283) fused with the B1 domain of protein G (mouse); test: BLI
ERp57 = target: T6, ERp57; test: BLI

| Molecule | Kd (mCRT(1-351 ΔP)) | Kd (mCRT(ΔP)) | Kd (mCRT(WT)) | Kd (mCRT(1-351)) | Kd (GB1-mCRT(C)) | Kd [1] | Kd (ERp57) |
| --- | --- | --- | --- | --- | --- | --- | --- |
| CCCCCCCC/C=C\CCCCCCCC(=O)O[C@H](COC(=O)CCCCCCCCCCCCCCC)COP(=O)([O-])OCC[N+](C)(C)C [POPC] | 42.6 ± 11.5 µM | 92.5 ± 11 µM | 158 ± 37.3 µM | 53.4 ± 13.8 µM |  |  |  |
| CCCCCCCC/C=C\CCCCCCCC(=O)O[C@H](COC(=O)CCCCCCCCCCCCCCC)COP(=O)(O)OC[C@H](N)C(=O)O [POPS] | 20.2 ± 4.08 µM | 7.5 ± 5.69 µM | 12.1 ± 4.49 µM | 32 ± 5.54 µM | 28.2 ± 4.3 µM |  |  |
| ERp57 (from UniProt P30101 25-505) (natural protein) |  |  |  |  |  | 0.101 µM |  |
| wild type murine calreticulin, mCRT(WT) (natural protein, mouse, UniProt P14211 18-416, looked up) DPAIYFKEQFLDGDAWTNRWVESKHKSDFGKFVLSSGKFYGDLEKDKGLQTSQDARFYALSAKFEPFSNKGQTLVVQFTVKHEQNIDCGGGYVKLFPSGLDQKDMHGDSEYNIMFGPDICGPGTKKVHVIFNYKGKNVLINKDIRCKDDEFTHLYTLIVRPDNTYEVKIDNSQVESGSLEDDWDFLPPKKIKDPDAAKPEDWDERAKIDDPTDSKPEDWDKPEHIPDPDAKKPEDWDEEMDGEWEPPVIQNPEYKGEWKPRQIDNPDYKGTWIHPEIDNPEYSPDANIYAYDSFAVLGLDLWQVKSGTIFDNFLITNDEAYAEEFGNETWGVTKAAEKQMKDKQDEEQRLKEEEEDKKRKEEEEAEDKEDDDDRDEDEDEEDEKEEDEEESPGQAKDEL |  |  |  |  |  |  | 0.282 ± 0.038 µM |

Reference: publication PMC5222549 (Journal of immunology (Baltimore, Md. : 1950), 2016)
